From patent US6515000B2, “Fungicidal mixtures based on amide compounds” (BASF Aktiengesellschaft, priority 2000, dated 2003)

How the values were obtained:
[1] = system: mildew of wheat (Blumeria graminis forma specialis tritici); assay: Action against mildew of wheat (protective spray, wheat seedlings cv. Kanzler); type: in vivo; settings: individual active ingredient, 7 days after inoculation
Protocol: (§1) The active compounds, separately or together, are formulated as a 10% emulsion in a mixture of 70% by weight of cyclohexanone, 20% by weight of Nekanil® LN (Lutensol® AP6, wetting agent having emulsifying and dispersing action based on ethoxylated alkylphenols) and 10% by weight of Emulphor® EL (Emulan® EL, emulsifier based on ethoxylated fatty alcohols) and diluted with water to the desired concentration.
(§2) Evaluation is carried out by determining the infected leaf areas in percent. These percentages are converted into efficacies. The efficacy (W) is calculated as follows using Abbot's formula: […]
α corresponds to the fungal infection of the treated plants in % and β corresponds to the fungal infection of the untreated (control) plants in % An efficacy of 0 means that the infection level of the treated plants corresponds to that of the untreated control plants; an efficacy of 100 means that the treated plants were not infected.
The expected efficacies of the mixtures of the active compounds were determined using Colby's formula [R. S. Colby, Weeds 15, 20-22 (1967)] and compared with the observed efficacies.
Colby's formula: E×x+y−x·y/100
E expected efficacy, expressed in % of the untreated control, when using the mixture of the active compounds A and B at the concentrations a and b x efficacy, expressed in % of the untreated control, when using active compound A at the concentration a y efficacy, expressed in % of the untreated control, when using active compound B at the concentration b.
Leaves of wheat seedlings of the cultivar “Kanzler”, grown in pots, were sprayed to run-off point with an aqueous formulation of active ingredient which had been prepared using a stock solution comprising 10% of active ingredient, 85% of cyclohexanone and 5% of emulsifier, and 24 hours after the spray coating had dried on, the leaves were dusted with spores of mildew of wheat (Blumeria graminis forma specialis tritici). […] After 7 days, the extent of the development of the mildew was determined visually in % infection of the entire leaf surface. […]

[2] = system: mildew of cucumber (Sphaerotheca fuliginea); assay: Action against mildew of cucumber (protective spray, cucumber seedlings cv. Chinesische Schlange); type: in vivo; settings: individual active ingredient, 7 days
Protocol: as §1, §2
The expected efficacies of the mixtures of the active compounds were determined using Colby's formula [R. S. Colby, Weeds 15, 20-22 (1967)] and compared with the observed efficacies. […]
Leaves of cucumber seedlings of the cultivar “Chinesische Schlange” which had been grown in pots were, at the cotyledon stage, sprayed to run-off point with an aqueous preparation of active ingredient which had been prepared using a stock solution made of 10% active ingredient, 85% of cyclohexanone and 5% of emulsifier. […] The extent of the mildew development was then determined visually in % infection of the cotyledon surface. […]

Substance: dinocap [dinocap (II)]
- Efficacy in % of the untreated control ([1]; 6 ppm in the spray liquor): 10%
- Efficacy in % of the untreated control ([1]; 12.5 ppm in the spray liquor): 10%
- Efficacy in % of the untreated control ([1]; 50 ppm in the spray liquor): 70%
- Efficacy in % of the untreated control ([2]; 6 ppm in the spray liquor): 10%
- Efficacy in % of the untreated control ([2]; 12.5 ppm in the spray liquor): 20%
